Here are results for eleven compounds from PMC11923636, “Synthesis, Pharmacological Evaluation, and Molecular Modeling of Phthalimide Derivatives as Monoamine Oxidase and Cholinesterase Dual Inhibitors” (ACS Omega, 2025).

Values joined by “and” are separate entries in the source; they are usually repeats but may differ in a detail not shown here. Identical values can stand only once.

Series [1] concerns the target Electrophorus electricus AChE (Electrophorus electricus, UniProt O42275). Nature of the series: biochemical. It counts as biochemical. Particulars: for IC50: mean ± SEM, n = 3, read-out: IC50 (μM) ± SEM eeAChE; for SI = IC50 of BChE/IC50 of AChE: selectivity index. On the procedure: (§1) The synthesized compounds were evaluated for their inhibition potential against cholinesterases (Electrophorus electricus AChE and equine serum lyophilized BChE).
(§2) The cholinesterase in vitro bioassay for the synthesized compounds was performed using already reported protocols.[29],[30] Ellman’s assay method was used to study the inhibition of Electrophorus electricus AChE and Equine Serum lyophilized BChE. Stock solutions of synthesized compounds were prepared in potassium phosphate buffer (pH 8.0). A sufficient amount of 5,5-dithio-bis-2-nitrobenzoic acid (DTNB, Ellman’s reagent), a stock solution of synthesized compounds, and 0.03 U/ml of the enzyme (AChE or BChE) were added to a 96-well plate and incubated at 30 °C for 10 min. Subsequently, 1 mM ATCI or BTCI was added, and the reaction mixture was incubated for 15 min. […] Sample concentration was plotted against inhibitory activity to obtain IC50 values.

Series [2] has as its target T1, equine serum lyophilized BChE (Equus caballus, UniProt P81908).
T1 construct: Equine Serum lyophilized BChE; from tissue; host or cells: equine serum
Nature of the series: biochemical. Particulars: mean ± SEM, n = 3; read-out: IC50 (μM) ± SEM eqBChE. On the procedure:
as §1, §2

The target in a further series is T2, human MAO-B (Homo sapiens, UniProt P27338).
T2 sequence (P27338 1-520): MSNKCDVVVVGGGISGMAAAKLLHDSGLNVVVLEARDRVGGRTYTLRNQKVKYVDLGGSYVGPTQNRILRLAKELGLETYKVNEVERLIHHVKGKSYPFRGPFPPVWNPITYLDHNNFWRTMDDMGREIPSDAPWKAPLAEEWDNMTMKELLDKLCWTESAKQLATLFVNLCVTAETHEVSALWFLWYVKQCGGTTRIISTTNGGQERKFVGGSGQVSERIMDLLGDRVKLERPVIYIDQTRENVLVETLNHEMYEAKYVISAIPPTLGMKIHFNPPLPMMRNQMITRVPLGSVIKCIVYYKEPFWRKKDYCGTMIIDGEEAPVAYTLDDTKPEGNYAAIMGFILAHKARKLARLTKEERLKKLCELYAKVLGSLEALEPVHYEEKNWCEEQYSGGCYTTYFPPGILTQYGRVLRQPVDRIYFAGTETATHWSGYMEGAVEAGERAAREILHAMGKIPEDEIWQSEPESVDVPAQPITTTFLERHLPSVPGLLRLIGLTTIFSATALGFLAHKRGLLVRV
Nature of the series: Human MAO isoform inhibition assay (fluorometric), MAO-B. The format is biochemical. Particulars: for IC50: mean ± SEM, n = 3, read-out: IC50 (μM) ± SEM hMAO-B; for SI (IC50 hMAO-A/IC50 hMAO-B): selectivity index. As for the experimental part:
(§3) The human MAO isoform assay was also carried out using a fluorescence-based assay protocol according to the reported literature.
(§4) Inhibitory activity of the synthesized compounds against MAO isoforms, specifically human MAO-A and MAO-B, was determined by using benzylamine and tyramine substrates in the dark (protected from light) in a 96-well plate by an already reported fluorometric method.[31],[32]

Another series concerns the target T3, human MAO-A (Homo sapiens, UniProt P21397).
T3 sequence (P21397 1-527): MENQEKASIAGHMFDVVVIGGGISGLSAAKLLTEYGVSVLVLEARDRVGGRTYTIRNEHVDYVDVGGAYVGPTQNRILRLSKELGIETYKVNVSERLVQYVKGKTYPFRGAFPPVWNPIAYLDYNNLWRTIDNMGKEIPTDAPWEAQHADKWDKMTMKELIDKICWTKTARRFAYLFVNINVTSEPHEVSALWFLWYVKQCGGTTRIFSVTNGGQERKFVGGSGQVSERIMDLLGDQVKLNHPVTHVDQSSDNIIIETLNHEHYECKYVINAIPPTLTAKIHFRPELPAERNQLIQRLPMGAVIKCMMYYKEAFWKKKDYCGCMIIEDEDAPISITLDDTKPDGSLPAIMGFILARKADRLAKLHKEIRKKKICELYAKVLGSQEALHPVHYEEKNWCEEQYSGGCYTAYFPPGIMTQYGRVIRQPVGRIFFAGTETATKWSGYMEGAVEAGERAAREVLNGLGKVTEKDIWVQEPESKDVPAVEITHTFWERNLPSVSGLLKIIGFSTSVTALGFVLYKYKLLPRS
Put plainly: Human MAO isoform inhibition assay (fluorometric), MAO-A. The format is biochemical. Particulars: mean ± SEM, n = 3; read-out: IC50 (μM) ± SEM hMAO-A. As for the experimental part: as §3, §4

The next series can be described thus: in vitro. On the procedure:
A fundamental requirement for the effectiveness of anti-AD drugs is their capability to traverse the BBB (blood–brain barrier). […]
Briefly, synthesized compounds were first dissolved in DMSO (10 mM) that was further diluted by the addition of phosphate buffer ([…]) having a pH of 7.4. PBL dissolved in dodecane was used for coating the membranes of the donor plates. Then, the test compound (0.2 mL) was added to the plate, followed by PBS (0.2 mL; pH = 7.4) to the acceptor plate, which was further placed under the donor plate in order to form a “sandwich”. […] A UV plate reader was employed for the measurements of the drug concentration in donor, acceptor, and reference wells. The permeability (Pe) of the compounds was measured by using the following formula. [drawing 2]

Sequence of Electrophorus electricus AChE (O42275 24-633): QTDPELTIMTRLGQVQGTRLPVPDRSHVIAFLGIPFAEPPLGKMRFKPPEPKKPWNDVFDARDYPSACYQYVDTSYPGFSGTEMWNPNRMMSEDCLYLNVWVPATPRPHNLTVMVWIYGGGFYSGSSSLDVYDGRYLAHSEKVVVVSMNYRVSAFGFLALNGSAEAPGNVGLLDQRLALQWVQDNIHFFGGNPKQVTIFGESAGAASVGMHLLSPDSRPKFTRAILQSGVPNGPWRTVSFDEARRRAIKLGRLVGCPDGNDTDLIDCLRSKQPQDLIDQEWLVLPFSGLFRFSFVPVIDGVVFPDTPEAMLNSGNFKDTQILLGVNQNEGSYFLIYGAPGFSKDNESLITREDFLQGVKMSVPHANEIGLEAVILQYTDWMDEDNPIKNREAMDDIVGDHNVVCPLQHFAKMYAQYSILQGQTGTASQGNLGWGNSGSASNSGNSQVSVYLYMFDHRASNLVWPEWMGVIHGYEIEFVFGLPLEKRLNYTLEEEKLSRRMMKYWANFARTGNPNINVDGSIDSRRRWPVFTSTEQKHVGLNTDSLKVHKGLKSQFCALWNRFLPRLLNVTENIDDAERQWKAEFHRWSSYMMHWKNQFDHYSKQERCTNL
T1 sequence (P81908 whole entry): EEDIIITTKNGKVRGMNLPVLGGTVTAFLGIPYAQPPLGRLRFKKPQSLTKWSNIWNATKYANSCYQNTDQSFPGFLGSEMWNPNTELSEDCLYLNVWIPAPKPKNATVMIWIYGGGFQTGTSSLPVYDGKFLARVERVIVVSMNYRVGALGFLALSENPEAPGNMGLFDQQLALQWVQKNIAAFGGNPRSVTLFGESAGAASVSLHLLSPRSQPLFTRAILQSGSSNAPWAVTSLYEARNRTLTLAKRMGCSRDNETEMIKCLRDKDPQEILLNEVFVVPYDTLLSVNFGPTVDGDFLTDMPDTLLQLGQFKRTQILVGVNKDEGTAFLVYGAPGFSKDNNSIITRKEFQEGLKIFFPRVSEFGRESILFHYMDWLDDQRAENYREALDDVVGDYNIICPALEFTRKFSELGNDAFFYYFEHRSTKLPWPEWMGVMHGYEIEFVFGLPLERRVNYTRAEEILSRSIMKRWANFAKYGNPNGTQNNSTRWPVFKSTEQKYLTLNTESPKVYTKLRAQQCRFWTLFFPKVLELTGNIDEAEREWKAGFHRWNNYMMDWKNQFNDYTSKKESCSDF

For orientation: IC50 means the point on the concentration scale where inhibition reaches its midpoint. As to `Cc1ccc(-c2ccc(CN3C(=O)c4ccccc4C3=O)cc2)cc1` [3a], the IC50 in series [1] came to 3.16 ± 0.09 µM; in series [2] it was 49.1 ± 1.36 µM; at human MAO-B, 1.04 ± 0.03 µM; on human MAO-A, 19.3 ± 1.28 µM. For the same compound, the “SI = IC50 of BChE/IC50 of AChE” value in series [1] worked out at 15. For the same compound, the “SI (IC50 hMAO-A/IC50 hMAO-B)” value at human MAO-B stood at 18.

`O=C1c2ccccc2C(=O)N1Cc1ccc(-c2ccc([N+](=O)[O-])cc2)cc1` [3c]: the IC50 in series [1] turned out to be 0.94 ± 0.12 µM; in series [2], 49.1 ± 1.39 µM; at human MAO-B, 0.24 ± 0.01 µM; on human MAO-A, 19.4 ± 1.21 µM. Further, the “SI = IC50 of BChE/IC50 of AChE” value in series [1] is on record as 52. Moreover, the “SI (IC50 hMAO-A/IC50 hMAO-B)” value at human MAO-B is on record as 80.

Take `N#Cc1ccc(-c2ccc(CN3C(=O)c4ccccc4C3=O)cc2)cc1` [3d]: the concentration for half-maximal inhibition (IC50) in series [1] stood at 9.21 ± 0.14 µM; in series [2], 33.5 ± 1.09 µM; on human MAO-B, 0.64 ± 0.03 µM; on human MAO-A it was 28.8 ± 1.44 µM. Moreover, the “SI = IC50 of BChE/IC50 of AChE” value in series [1] amounted to 4. Also, the “SI (IC50 hMAO-A/IC50 hMAO-B)” value on human MAO-B stood at 45.

In the case of `N#CCc1ccc(-c2ccc(CN3C(=O)c4ccccc4C3=O)cc2)cc1` [3g], the IC50 was 13.43 ± 0.08 µM in series [1], 99.1 ± 1.21 µM in series [2], 0.78 ± 0.04 µM on human MAO-B and 5.44 ± 0.16 µM at human MAO-A. Moreover, the “SI = IC50 of BChE/IC50 of AChE” value in series [1] came out at 7. Also, the “SI (IC50 hMAO-A/IC50 hMAO-B)” value at human MAO-B was 7.

`Cc1cc(C)cc(-c2ccc(CN3C(=O)c4ccccc4C3=O)cc2)c1` [3h]: the IC50 in series [1] was determined as 0.73 ± 0.04 µM; in series [2] it was 29.6 ± 1.16 µM; at human MAO-B, 0.64 ± 0.02 µM; at human MAO-A, 75.1 ± 1.25 µM. Moreover, the “SI = IC50 of BChE/IC50 of AChE” value in series [1] worked out at 40. At human MAO-B, the “SI (IC50 hMAO-A/IC50 hMAO-B)” value is 117.

With `Cc1cc(C)c(-c2ccc(CN3C(=O)c4ccccc4C3=O)cc2)c(C)c1` [3i], the IC50 was 0.88 ± 0.05 µM in series [1], 49.2 ± 1.11 µM in series [2], 0.71 ± 0.04 µM on human MAO-B and 50.9 ± 1.42 µM at human MAO-A. In addition, the “SI = IC50 of BChE/IC50 of AChE” value in series [1] came to 56. In addition, the “SI (IC50 hMAO-A/IC50 hMAO-B)” value at human MAO-B was 71.

Regarding `O=C1c2ccccc2C(=O)N1Cc1ccc(-c2cccc3ccccc23)cc1` [3j], the IC50 in series [1] turned out to be 0.61 ± 0.03 µM; in series [2] it was 18.9 ± 1.08 µM; at human MAO-B, 0.13 ± 0.01 µM; on human MAO-A, 6.98 ± 0.2 µM. The “SI = IC50 of BChE/IC50 of AChE” value in series [1] stood at 31. Further, the “SI (IC50 hMAO-A/IC50 hMAO-B)” value at human MAO-B came to 53.

With `O=C1c2ccccc2C(=O)N1Cc1ccc(-c2ccc3c(c2)OCO3)cc1` [3k], the IC50 in series [1] is 21.1 ± 0.47 µM; in series [2], 80.7 ± 1.54 µM; at human MAO-B, 0.66 ± 0.03 µM; on human MAO-A, 40.4 ± 1.31 µM. The “SI = IC50 of BChE/IC50 of AChE” value in series [1] was 3.8 and 4. The “SI (IC50 hMAO-A/IC50 hMAO-B)” value at human MAO-B is listed as 61.

Regarding `O=C1c2ccccc2C(=O)N1Cc1ccc(-c2cccs2)cc1` [3l], the IC50 came to 0.91 ± 0.02 µM in series [1], 55.3 ± 1.31 µM in series [2], 0.14 ± 0.01 µM at human MAO-B and 8.29 ± 0.33 µM at human MAO-A. Moreover, the “SI = IC50 of BChE/IC50 of AChE” value in series [1] is given as 61. On human MAO-B, the “SI (IC50 hMAO-A/IC50 hMAO-B)” value was 59.

For `Cc1ccc2cc(-c3ccc(CN4C(=O)c5ccccc5C4=O)cc3)ccc2n1` [3m], the half-inhibitory concentration (IC50) is 0.89 ± 0.1 µM in series [1], 31.1 ± 0.79 µM in series [2], 0.15 ± 0.01 µM at human MAO-B and 23.5 ± 1.12 µM at human MAO-A. The “SI = IC50 of BChE/IC50 of AChE” value in series [1] is 35. Further, the “SI (IC50 hMAO-A/IC50 hMAO-B)” value at human MAO-B came out at 156.

As a reminder, the Papp is a coefficient for how fast a substance crosses the barrier. Low readings indicate slow passage, high ones fast passage. In turn, `C[C@H](NCc1ccc(OCc2cccc(F)c2)cc1)C(N)=O` [safinamide, reference compound] registered a Papp at 20 h in the series “in vitro” (PAMPA, pH 7.4) of 7.56 ± 0.02 ×10⁻⁶ cm/s. In “in vitro” (class from PAMPA-BBB Pe), the “prediction of CNS penetration” value is “CNS+ (“CNS+” (prediction of high BBB permeation); Pe (10^–6 cm/s) > 4.39)”.
